Test [1] has as its target T1, HCV NS3/4A protease complex (BMS strain, genotype 1a) (Hepatitis C virus genotype 1a, UniProt P27958, C1454S).
T1 construct: DNA encoding the recombinant HCV NS3/4A protease complex (amino acids 1027 to 1711) for these strains; inferred from the pET21b vector and Ni-NTA purification; made in house; host or cells: Escherichia coli BL21 (DE3), pET21b
In words: Recombinant HCV NS3/4A protease complex FRET peptide assay, BMS strain. Format: biochemical. The following applies: IC50 range, NS3/4A BMS Strain. From the text: The purpose of this in vitro assay was to measure the inhibition of HCV NS3 protease complexes, derived from the BMS, H77C or J416S strains, as described below, by compounds of the present invention.
Serum from an HCV-infected patient was obtained from Dr. T. Wright, San Francisco Hospital. An engineered full-length cDNA (compliment deoxyribonucleic acid) template of the HCV genome (BMS strain) was constructed from DNA fragments obtained by reverse transcription-PCR (RT-PCR) of serum RNA (ribonucleic acid) and using primers selected on the basis of homology between other genotype 1a strains. […] The infectious clones, H77C (1a genotype) and J4L6S (1b genotype) were obtained from R. Purcell (NIH) and the sequences are published in Genbank (AAB67036, see Yanagi,M., Purcell,R. H., Emerson,S. U. and Bukh,J. Proc. Natl. Acad. Sci. U.S.A. 94(16),8738-8743 (1997); AF054247, see Yanagi,M., St Claire,M., Shapiro,M., Emerson,S. U., Purcell,R. H. and Bukh,J, Virology 244 (1), 161-172. (1998)).
The BMS, H77C and J4L6S strains were used for production of recombinant NS3/4A protease complexes. DNA encoding the recombinant HCV NS3/4A protease complex (amino acids 1027 to 1711) for these strains were manipulated as described by P. Gallinari et al. (see Gallinari P, Paolini C, Brennan D, Nardi C, Steinkuhler C, De Francesco R. Biochemistry. 38(17):5620-32, (1999)). Briefly, a three-lysine solubilizing tail was added at the 3′-end of the NS4A coding region. The cysteine in the P1 position of the NS4A-NS4B cleavage site (amino acid 1711) was changed to a glycine to avoid the proteolytic cleavage of the lysine tag. Furthermore, a cysteine to serine mutation was introduced by PCR at amino acid position 1454 to prevent the autolytic cleavage in the NS3 helicase domain. The variant DNA fragment was cloned in the pET21b bacterial expression vector (Novagen) and the NS3/4A complex was expressed in Escherichia. coli strain BL21 (DE3) (Invitrogen) following the protocol described by P. Gallinari et al. (see Gallinari P, Brennan D, Nardi C, Brunetti M, Tomei L, Steinkuhler C, De Francesco R., J. Virol. 72(8):6758-69 (1998)) with modifications. Briefly, NS3/4A expression was induced with 0.5 mM Isopropyl β-D-1-thiogalactopyranoside (IPTG) for 22 hr at 20° C. […] The cells were resuspended in lysis buffer (10 mL/g) consisting of 25 mM N-(2-Hydroxyethyl)Piperazine-N′-(2-Ethane Sulfonic acid) (HEPES), pH 7.5, 20% glycerol, 500 mM Sodium Chloride (NaCl), 0.5% Triton-X100, 1 ug/ml lysozyme, 5 mM Magnesium Chloride (MgCl2), 1 ug/ml DnaseI, 5 mM β-Mercaptoethanol (βME), Protease inhibitor—Ethylenediamine Tetraacetic acid (EDTA) free (Roche), homogenized and incubated for 20 mins at 4° C. The homogenate was sonicated and clarified by ultra-centrifugation at 235000 g for 1 hr at 4° C. Imidazole was added to the supernatant to a final concentration of 15 mM and the pH adjusted to 8.0. The crude protein extract was loaded on a Nickel-Nitrilotriacetic acid (Ni-NTA) column pre-equilibrated with buffer B (25 mM HEPES, pH 8.0, 20% glycerol, 500 mM NaCl, 0.5% Triton-X100, 15 mM imidazole, 5 mM βME). The sample was loaded at a flow rate of 1 mL/min. The column was washed with 15 column volumes of buffer C (same as buffer B except with 0.2% Triton-X100). The protein was eluted with 5 column volumes of buffer D (same as buffer C except with 200 mM Imidazole).
NS3/4A protease complex-containing fractions were pooled and loaded on a desalting column Superdex-S200 pre-equilibrated with buffer D (25 mM HEPES, pH7.5, 20% glycerol, 300 mM NaCl, 0.2% Triton-X100, 10 mM βME).

Test [2] relates to HCV replicon in Huh7 cells. In words: HCV replicon cell-based assay (FRET). Conditions: Hepatitis C virus. From the text: An HCV replicon whole cell system was established as described by Lohmann V, Korner F, Koch J, Herian U, Theilmann L, Bartenschlager R., Science 285(5424):110-3 (1999). This system enabled us to evaluate the effects of our HCV Protease compounds on HCV RNA replication. Briefly, using the HCV strain 1B sequence described in the Lohmann paper (Assession number: AJ238799), an HCV cDNA was generated encoding the 5′ internal ribosome entry site (IRES), the neomycin resistance gene, the EMCV (encephalomyocarditis viurs)-IRES and the HCV nonstructural proteins, NS3-NS5B, and 3′ non-translated region (NTR). In vitro transcripts of the cDNA were transfected into the human hepatoma cell line, Huh7. […] Resulting cell lines were characterized for positive and negative strand RNA production and protein production over time.
Huh7 cells, constitutively expressing the HCV replicon, were grown in Dulbecco's Modified Eagle Media (DMEM) containing 10% Fetal calf serum (FCS) and 1 mg/ml G418 (Gibco-BRL). Cells were seeded the night before (1.5×10^4 cells/well) in 96-well tissue-culture sterile plates. Compound and no compound controls were prepared in DMEM containing 4% FCS, 1:100 Penicillin/Streptomysin, 1:100 L-glutamine and 5% DMSO in the dilution plate (0.5% DMSO final concentration in the assay). Compound/DMSO mixes were added to the cells and incubated for 4 days at 37° C. After 4 days, plates were rinsed thoroughly with Phosphate-Buffered Saline (PBS) (3 times 150 μl). The cells were lysed with 25 μl of a lysis assay reagent containing the FRET peptide (RET S1, as described for the in vitro enzyme assay). The lysis assay reagent was made from 5× cell Luciferase cell culture lysis reagent(Promega #E153A) diluted to 1× with distilled water, NaCl added to 150 mM final, the FRET peptide diluted to 10 μM final from a 2 mM stock in 100% DMSO. The plate was then placed into the Cytofluor 4000 instrument which had been set to 340 nm excitation/490 emission, automatic mode for 21 cycles and the plate read in a kinetic mode. EC50 determinations were carried out as described for the IC50 determinations.

Setting [3] is: Huh-7, HCV replicon, read-out: EC50 range.

Read-outs that look alike come from different tables or passages of the source.

T1 sequence (P27958 1658-1714, looked up, stated change not applied): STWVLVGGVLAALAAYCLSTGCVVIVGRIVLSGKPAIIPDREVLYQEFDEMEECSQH
T1 sequence (P27958 1027-1657, looked up, stated change not applied): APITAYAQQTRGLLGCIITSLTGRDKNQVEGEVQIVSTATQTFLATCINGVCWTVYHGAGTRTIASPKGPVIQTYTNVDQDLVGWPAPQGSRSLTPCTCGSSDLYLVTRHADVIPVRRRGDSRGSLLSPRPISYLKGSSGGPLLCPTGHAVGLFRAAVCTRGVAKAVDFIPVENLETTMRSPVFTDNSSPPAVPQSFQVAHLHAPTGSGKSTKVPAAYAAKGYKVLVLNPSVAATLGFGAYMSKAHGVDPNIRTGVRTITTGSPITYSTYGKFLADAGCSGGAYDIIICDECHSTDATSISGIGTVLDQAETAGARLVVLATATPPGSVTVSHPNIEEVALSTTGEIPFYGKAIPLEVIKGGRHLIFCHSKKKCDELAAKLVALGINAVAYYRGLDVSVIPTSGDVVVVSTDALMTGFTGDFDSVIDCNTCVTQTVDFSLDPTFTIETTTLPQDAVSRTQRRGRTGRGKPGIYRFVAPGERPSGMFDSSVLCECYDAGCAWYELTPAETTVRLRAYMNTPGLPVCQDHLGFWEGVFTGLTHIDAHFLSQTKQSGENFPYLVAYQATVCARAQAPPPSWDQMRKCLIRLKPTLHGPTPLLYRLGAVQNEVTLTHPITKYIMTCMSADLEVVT

On to `C=C[C@@H]1C[C@]1(NC(=O)[C@@H]1C[C@@H](Oc2cc(-c3ccccc3)nc3cc(OC)ccc23)CN1C(=O)[C@@H](NC(=O)OC(C)(C)C)C(C)(C)C)C(=O)NS(=O)(=O)C1(C(=C)C)CC1` [Compound 43, {1-[2-[1-(1-Isopropenyl-cyclopropanesulfonylaminocarbonyl)-2-vinyl-cyclopropylcarbamoyl]-4-(7-methoxy-2-phenyl-quinolin-4-yloxy)-pyrrolidine-1-carbonyl]-2,2-dimethyl-propyl}-carbamic acid tert-butyl ester], for which the half-inhibitory concentration (IC50) in test [1] is below 50 nM. Moreover, the EC50 in test [2] (setting [3]) is below 50 nM.

`C=CC1C[C@]1(NC(=O)[C@@H]1C[C@@H](Oc2cc(-c3ccccc3)nc3cc(OC)ccc23)CN1C(=O)[C@@H](NC(=O)OC(C)(C)C)C(C)(C)C)C(=O)NS(=O)(=O)C1(CC2CC2)CC1` (some centres unmarked) [Compound 8, {1-[2-[1-(1-Cyclopropylmethyl-cyclopropanesulfonylaminocarbonyl)-2-vinyl-cyclopropylcarbamoyl]-4-(7-methoxy-2-phenyl-quinolin-4-yloxy)-pyrrolidine-1-carbonyl]-2,2-dime-thylpropyl}-carbamic acid tert-butyl ester]: the half-maximal inhibitory concentration (IC50) in test [1] was below 50 nM. For the same molecule, the EC50 in test [2] (setting [3]) was below 50 nM.

Consider `C=C[C@@H]1C[C@]1(NC(=O)[C@@H]1C[C@@H](Oc2cc(-c3ccccc3)nc3cc(OC)ccc23)CN1C(=O)[C@@H](NC(=O)OC1(C(=O)OCC)CC1)C(C)(C)C)C(=O)NS(=O)(=O)C1(Cc2ccccc2)CC1` [Compound 81], for which the IC50 in test [1] was 50 to 500 nM. The EC50 in test [2] (Huh-7, read-out: EC50 range) lay within 50 to 500 nM.

`C=C[C@@H]1C[C@]1(NC(=O)[C@@H]1C[C@@H](Oc2cc(-c3ccccc3)nc3cc(OC)ccc23)CN1C(=O)[C@@H](NC(=O)Oc1cccc(C(F)(F)F)c1)C(C)(C)C)C(=O)NS(=O)(=O)C1(Cc2ccccc2)CC1` [Compound 108]: the IC50 in test [1] lay within 50 to 500 nM. For the same molecule, the EC50 in test [2] (setting [3]) was 500 to 5000 nM.

As for `C=C[C@@H]1C[C@]1(NC(=O)[C@@H]1C[C@@H](Oc2cc(-c3ccccc3)nc3cc(OC)ccc23)CN1C(=O)[C@@H](NC(=O)CCOC)C(C)(C)C)C(=O)NS(=O)(=O)C1(Cc2ccccc2)CC1` [Compound 112], the half-maximal inhibitory concentration (IC50) in test [1] lay in the range of 50 to 500 nM. For the same molecule, in test [2] (setting [3]), the concentration giving a half-maximal response (EC50) was in the range of 50 to 500 nM.

With `C=C[C@@H]1C[C@]1(NC(=O)[C@@H]1C[C@@H](Oc2cc(-c3ccccc3)nc3cc(OC)ccc23)CN1C(=O)[C@@H](NC(=O)OC(C)(C)C)C(C)(C)C)C(=O)NS(=O)(=O)C1(I)CC1` [Compound 39, {1-[2-[1-(1-Iodo-cyclopropanesulfonylaminocarbonyl)-2-vinyl-cyclopropylcarbamoyl]-4-(7-methoxy-2-phenyl-quinolin-4-yloxy)-pyrrolidine-1-carbonyl]-2,2-dimethyl-propyl}-carbamic acid tert-butyl ester], the half-inhibitory concentration (IC50) in test [1] was below 50 nM. For the same molecule, the EC50 in test [2] (setting [3]) was below 50 nM.

With `C=C[C@@H]1C[C@]1(NC(=O)[C@@H]1C[C@@H](Oc2cc(-c3ccccc3)nc3cc(OC)ccc23)CN1C(=O)[C@@H](NC(=O)OC(C)(C)C)C(C)(C)C)C(=O)NS(=O)(=O)C1(COC(C)C)CC1` [Compound 37, {1-[2-[1-(1-Isopropoxymethyl-cyclopropanesulfonylaminocarbonyl)-2-vinyl-cyclopropylcarbamoyl]-4-(7-methoxy-2-phenyl-quinolin-4-yloxy)-pyrrolidine-1-carbonyl]-2,2-dimethyl-propyl}-1-carbamic acid tert-butyl ester], the IC50 in test [1] is below 50 nM. In test [2] (setting [3]), the half-maximal effective concentration (EC50) is below 50 nM.

Turning to `C=C[C@@H]1C[C@]1(NC(=O)[C@@H]1C[C@@H](Oc2cc(-c3ccccc3)nc3cc(OC)ccc23)CN1C(=O)[C@@H](NC(=O)OC(C)(C)C)C(C)(C)C)C(=O)NS(=O)(=O)C1(Cc2ncoc2-c2ccccc2)CC1` [Compound 46], the IC50 in test [1] is below 50 nM. In test [2] (setting [3]), the EC50 was below 50 nM.

Regarding `C=CCC1(S(=O)(=O)NC(=O)[C@@]2(NC(=O)[C@@H]3C[C@@H](Oc4cc(-c5ccccc5)nc5cc(OC)ccc45)CN3C(=O)[C@@H](NC(=O)OC(C)(C)C)C(C)(C)C)CC2C=C)CC1` (some centres unmarked) [Compound 2, {1-[2-[1-(1-Allylcyclopropanesul-fonylaminocarbonyl)-2-vinylcyclopropylcarbamoyl]-4-(7-methoxy-2-phenylquinolin-4-yloxy)-pyrrolidine-1-carbonyl]-2,2-dimethylpropyl}carbamic acid tert-butyl ester], the IC50 in test [1] was below 50 nM. The EC50 in test [2] (setting [3]) is below 50 nM.

For the molecule `C=C[C@@H]1C[C@]1(NC(=O)[C@@H]1C[C@@H](Oc2cc(-c3ccccc3)nc3cc(OC)ccc23)CN1C(=O)[C@@H](NC(=O)OCC(C)(C)C)C(C)(C)C)C(=O)NS(=O)(=O)C1(Cc2ccccc2)CC1` [Compound 105], the IC50 in test [1] is below 50 nM. Moreover, the concentration for a half-maximal effect (EC50) in test [2] (setting [3]) is 50 to 500 nM.

Take `C=C[C@@H]1C[C@]1(NC(=O)[C@@H]1C[C@@H](Oc2cc(-c3ccccc3)nc3cc(OC)ccc23)CN1C(=O)[C@@H](NC(=O)[C@@H]1COc2ccccc2O1)C(C)(C)C)C(=O)NS(=O)(=O)C1(Cc2ccccc2)CC1` [Compound 113]: the IC50 in test [1] was 500 to 5000 nM.

In the case of `COc1ccc2c(O[C@@H]3C[C@@H](C(=O)NC4(C(=O)NS(=O)(=O)C5(C(=O)c6ccccc6)CC5)CC4)N(C(=O)[C@@H](NC(=O)OC(C)(C)C)C(C)(C)C)C3)cc(-c3ccccc3)nc2c1` [Compound 73], the half-maximal inhibitory concentration (IC50) in test [1] was in the range of 500 to 5000 nM.

With `C=C[C@@H]1C[C@]1(NC(=O)[C@@H]1C[C@@H](Oc2cc(-c3ccccc3)nc3cc(OC)ccc23)CN1C(=O)[C@@H](NC(=O)O[C@@H]1C[C@H](C)CC[C@H]1C(C)C)C(C)(C)C)C(=O)NS(=O)(=O)C1(Cc2ccccc2)CC1` [Compound 109], in test [1], the half-maximal inhibitory concentration (IC50) was 500 to 5000 nM.
